Consider one molecule from PubChem BioAssay AID504680 (Sanford-Burnham Center for Chemical Genomics, 2011).

Calls of active or inactive are those of the source.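 How the source made its calls: active means IC50 below 100 µM in the TR-FRET assay, unless also active in the caspase-3 counter assay; inactive means the rest, including compounds also active in caspase-3.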 Where only a bound is given, the exact number is not on record here.

The experiment concerns the target Caspase-3 (Homo sapiens) (UniProt P42574). Briefly: inhibition of recombinant caspase-3 activity – biochemical, luminescence, Caspase-Glo 3/7, counter-screen for UBC13 polyubiquitin inhibitor project, SAR follow-up (AID 504680). The note with it: recombinant caspase-3, Caspase-Glo luminescence, 60 min. For orientation: The purpose of a counterscreen is to sort out artefacts and off-target activity.

Sequence of Caspase-3 (Homo sapiens) (P42574 whole entry, looked up): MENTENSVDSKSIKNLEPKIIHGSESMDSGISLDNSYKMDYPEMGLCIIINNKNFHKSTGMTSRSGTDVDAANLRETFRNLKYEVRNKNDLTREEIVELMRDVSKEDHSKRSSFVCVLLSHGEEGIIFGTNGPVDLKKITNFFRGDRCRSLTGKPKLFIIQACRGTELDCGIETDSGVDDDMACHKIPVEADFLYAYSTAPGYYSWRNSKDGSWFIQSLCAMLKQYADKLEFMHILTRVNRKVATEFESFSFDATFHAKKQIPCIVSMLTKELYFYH

On to `CC1(C)Cc2c(sc(NC(=O)COc3ccc(Cl)cc3Cl)c2C(N)=O)C(C)(C)N1`, for which the IC50 (usually the midpoint of a concentration-inhibition curve) is > 100 µM (inactive).
